Test results from patent publication US7964631B2, “Fused tricyclic compounds as inhibitors of tumor necrosis factor-α” (Piramal Life Sciences Limited, priority 2004, dated 2011).
Counter-ions that a name gives are not always drawn.

Columns and labels:
[1] = test system: TNF-α; assay: LPS-induced TNF-α production in peripheral blood mononuclear cells (secondary screening); assay type: cell-based; conditions: 4.5 h, TNF-α production in PBMC, LPS 1 μg/ml, ELISA or L929 bioassay
Procedure: (§1) TNF-α production by LPS in peripheral blood mononuclear cells (PBMC) was measured according to the method described by Henry et al (J. Bioorg. Med. Chem. Lett., 8: 3335-3340, 1998). Briefly, blood was collected from healthy donors into Potassium EDTA vacutainer tubes (Vacutest Plast/Becton Dickinson). PBMC were isolated using gradient centrifugation in Ficoll-Paque solution (Pharmacia). Isolated PBMC were suspended in RPMI 1640 culture medium (Gibco BRL, Pasley, UK) containing 10% fetal bovine serum (FBS) (Hyclone, Utah, USA), 100 U/ml penicillin (Sigma Chemical Co. St Louis, Mo.) and 100 μg/ml streptomycin (Sigma Chemical Co. St Louis, Mo.). The cell concentration was adjusted to 1×10^6 cells/ml. The viability as determined by trypan blue dye exclusion was uniformly ≧98%. The cell suspension (100 μl) was added to the wells of a 96-well culture plate. Following cell plating, 79 μl of the culture medium and 1 μl of eight different concentrations of the test compounds (final concentration 0.03, 0.1, 0.3, 1, 3, 10, 30, 100 μM) dissolved in DMSO (dimethylsulfoxide, Sigma, Mo., USA) were added to the cells. The final concentration of DMSO was adjusted to 0.5%. The appropriate DMSO concentration was used as control. Rolipram (30 μM) was used as a standard compound. The plates were incubated for 30 min at 37° C. in an atmosphere of 5% CO2. Finally, 20 μl (10 μg/ml) per well of LPS, (Escherchia coli 0127:B8, Sigma Chemical Co., St. Louis, Mo.) was added, for a final concentration of 1 μg/ml. The plates were incubated at 37° C. for 4.5 h in an atmosphere of 5% CO2. To determine the cytotoxicity of the test compounds, the cell viability was assessed using MTS (3-(4,5-dimethylthiazol-2-yl)-5-(3-carboxymethoxyphenyl)-2-(4-sulfonyl)-2H-tetrazolium) reagent (Promega) after 4.5 h of incubation. Supernatants were harvested and assayed for TNF-α by ELISA as described by the manufacturer (R&D Systems, MN, BD Biosciences Pharmingen) or by cytotoxicity bioassay in L929 cells. The 50% inhibitory concentration (IC50) values were calculated by a nonlinear regression method using GraphPad software (Prism 3.03)

[2] = test system: peripheral blood mononuclear cells (PBMC); assay: Cytotoxicity of test compounds in PBMC, cell viability by MTS reagent; assay type: cell-based, human
Procedure: as §1

[3] = test system: TNF-α; assay: LPS-induced TNF-α release in BALB/c mice; assay type: in vivo; conditions: Mus musculus, LPS 1 mg/kg i.p. 1 h after dosing, plasma TNF-α 1.5 h after LPS, read-out: % inhibition (Mean ± SE*); for inhibition in vivo at 100 mg/kg: 100 mg/kg po; for inhibition in vivo at 30 mg/kg: 30 mg/kg po
Procedure: The protocol described by Fukuda T. et al (Eur. J. Pharmacol., 391: 317-320, 2000) was followed. BALB/c mice were divided into groups of five to ten each. The test compound, suspended in Tween 80-0.5% carboxy methylcellulose (CMC), with a few drops of Tween 80 as wetting agent if necessary, was administered orally (p.o.) to the mice. One hour later, LPS dissolved in sterile, pyrogen-free saline was administered i.p. at the dose of 1 mg/kg. The negative control group received saline as an i.p injection, while all other groups received LPS. Rolipram (30 mg/kg) was used as the standard drug. One and a half hours later, blood was collected in heparin. Plasma was separated by centrifugation at 13000 rpm (Heraeus Biofuge Pico Centrifuge) at room temperature, aliquoted and stored at −70° C. until analysis.
TNF-α levels in the blood samples were assayed using ELISA and % inhibition of TNF-α release compared to the control group was calculated.

[4] = test system: TNF-α; assay: Whole blood cell culture assay: LPS-induced TNF-α release (primary screening); assay type: cell-based, human; conditions: Homo sapiens, Whole blood cell; test compound 1 μM; diluted whole blood of healthy donors; LPS 1 μg/ml, 4.5 h; vs DMSO control
Procedure: TNF-α production by lipopolysaccharide (LPS) in whole blood was measured according to the method described by Wilson et al (J. Immunol. Methods, 139: 233-240, 1991). Briefly, blood was collected from healthy donors into potassium EDTA vacutainer tubes (Vacutest Plast/Becton Dickinson) and diluted with RPMI 1640 culture medium (Gibco BRL, Pasley, UK) containing 100 U/ml penicillin and 100 μg/ml streptomycin, (100× solution, Sigma Chemical Co. St Louis, Mo.) with no added serum. The white blood cell count was adjusted to 1×10^6 cells/ml and 100 μl/well of the diluted blood was transferred into 96-well culture plates. Following cell plating, 79 μl of culture medium and 1 μl of the test compounds (final concentration 1 μM) dissolved in DMSO (dimethylsulfoxide, Sigma, Mo., USA) was added to the cells. The final concentration of DMSO was adjusted to 0.5%. 1 μl of vehicle (0.5% DMSO) was used as control. Rolipram (100 μM) was used as a standard compound. The plates were incubated for 30 min at 37° C. in an atmosphere of 5% CO2. Finally, 20 μl (10 μg/ml) per well of LPS (Escherchia coli 0127:B8, Sigma Chemical Co., St. Louis, Mo.) was added, for a final concentration of 1 μg/ml. Plates were incubated at 37° C. for 4.5 h in an atmosphere of 5% CO2. Supernatants were harvested and assayed for TNF-α by ELISA as described by the manufacturer (R&D Systems, MN) or by cytotoxicity bioassay in L929 cells. Percent inhibition of TNF-α release in comparison to the control was calculated.

Compound	IC50 [1]	melting point	% toxicity (10 μM), 5 h [2]	inhibition in vivo at 10 mg/kg ([3]; 10 mg/kg po)	inhibition in vivo at 100 mg/kg [3]	inhibition at 1 µM [4]	inhibition in vivo at 30 mg/kg [3]
COC(=O)c1cc(C)c2c(c1)S(=O)(=O)Cc1cc(N)cc(Cl)c1O2 [Example 1, 2-Amino-4-chloro-6-methyl-10,10-dioxo-10,11-dihydro-5-oxa-10lambda*6*-thia-dibenzo[a,d]cycloheptene-8-carboxylic acid methyl ester]	8.6 µM	258 to 260 °C	12%	64.9 ± 3.97%	–	–	–
Cc1cc(C(=O)O)cc2c1Oc1c(Cl)cc(N)cc1CS2(=O)=O [Example 3, 2-Amino-4-chloro-6-methyl-10,10-dioxo-10,11-dihydro-5-oxa-10lambda*6*-thia-dibenzo[a,d]cycloheptene-8-carboxylic acid sodium salt]	–	–	–	–	40.7 ± 12.7%	–	–
Cc1cc(C(=O)O)cc2c1Oc1c(Cl)cc(NC=O)cc1CS2(=O)=O [Example 7, 4-Chloro-2-formylamino-6-methyl-10,10-dioxo-10,11-dihydro-5-oxa-10lambda*6*-thia-dibenzo[a,d]cycloheptene-8-carboxylic acid]	–	–	–	–	55.8 ± 9.24%	–	–
Cc1cc(C(=O)OC(C)C)cc2c1Oc1c(Cl)cc(NC=O)cc1CS2(=O)=O [Example 11, 4-Chloro-2-formylamino-6-methyl-10,10-dioxo-10,11-dihydro-5-oxa-10lambda*6*-thia-dibenzo[a,d]cycloheptene-8-carboxylic acid isopropyl ester]	21 µM	212 to 215 °C	25%	–	77.9 ± 9.85%	51%	–
COC(=O)c1cc(C)c2c(c1)S(=O)(=O)Cc1cc(N3CCNCC3)cc(Cl)c1O2.Cl [Example 16, 4-Chloro-6-methyl-10,10-dioxo-2-piperazin-1-yl-10,11-dihydro-5-oxa-10lambda*6*-thia-dibenzo[a,d]-cycloheptene-8-carboxylic acid methyl ester hydrochloride]	0.18 µM	277 to 280 °C	62%	–	72.2 ± 3.17%	41%	–
Cc1cc(C(=O)O)cc2c1Oc1c(Cl)cc(N3CCNCC3)cc1CS2(=O)=O [Example 18, 4-Chloro-6-methyl-10,10-dioxo-2-piperazin-1-yl-10,11-dihydro-5-oxa-10lambda*6*-thia-dibenzo[a,d]cycloheptene-8-carboxylic acid]	–	–	–	–	22.7 ± 8.47%	–	–
COC(=O)c1cc(C)c2c(c1)S(=O)(=O)Cc1cc(N3CCN(C=O)CC3)cc(Cl)c1O2 [Example 20, 4-Chloro-2-(4-formyl-piperazin-1-yl)-6-methyl-10,10-dioxo-10,11-dihydro-5-oxa-10lambda*6*-thia-dibenzo[a,d]cycloheptene-8-carboxylic acid methyl ester]	1.1 µM	–	24%	–	–	–	27.9 ± 17.5%
COC(=O)c1cc(C)c2c(c1)S(=O)(=O)Cc1cc(N3CCN(C(C)=O)CC3)cc(Cl)c1O2 [Example 21, 2-(4-Acetyl-piperazin-1-yl)-4-chloro-6-methyl-10,10-dioxo-10,11-dihydro-5-oxa-10lambda*6*-thia-dibenzo[a,d]cycloheptene-8-carboxylic acid methyl ester]	4 µM	–	44%	–	–	–	54.6 ± 11.7%
COC(=O)c1cc(C)c2c(c1)S(=O)(=O)Cc1cc(N3CCN(CCO)CC3)cc(Cl)c1O2 [Example 22, 4-Chloro-2-[4-(2-hydroxy-ethyl)-piperazin-1-yl]-6-methyl-10,10-dioxo-10,11-dihydro-5-oxa-10lambda*6*-thia-dibenzo[a,d]cycloheptene-8-carboxylic acid methyl ester]	0.88 µM	–	16%	–	57.7 ± 5.66%	–	–
COC(=O)c1cc(C)c2c(c1)S(=O)(=O)Cc1cc(N3CCN(C(=O)c4ccccc4C)CC3)cc(Cl)c1O2 [Example 24, 4-Chloro-6-methyl-2-[4-(2-methyl-benzoyl)-piperazin-1-yl]-10,10-dioxo-10,11-dihydro-5-oxa-10lambda*6*-thia-dibenzo[a,d]cycloheptene-8-carboxylic acid methyl ester]	3.87 ± 1.42 µM	201 to 204 °C	03%	–	–	74%	17.6 ± 8.72%
COC(=O)c1cc(C)c2c(c1)S(=O)(=O)Cc1cc(N3CCN(S(C)(=O)=O)CC3)cc(Cl)c1O2 [Example 25, 4-Chloro-2-(4-methanesulfonyl-piperazin-1-yl)-6-methyl-10,10-dioxo-10,11-dihydro-5-oxa-10lambda*6*-thia-dibenzo[a,d]cycloheptene-8-carboxylic acid methyl ester]	0.6 µM	–	18%	–	–	–	33.6 ± 16.5%
Cc1cc(C(=O)OC(C)C)cc2c1Oc1c(Cl)cc(N3CCNCC3)cc1CS2(=O)=O.Cl [Example 28, 4-Chloro-6-methyl-10,10-dioxo-2-piperazin-1-yl-10,11-dihydro-5-oxa-10lambda*6*-thia-dibenzo[a,d]cycloheptene-8-carboxylic acid isopropyl ester hydrochloride]	10.5 µM	262 to 264 °C	15%	–	–	70%	–
COC(=O)c1cc(C)c2c(c1)S(=O)(=O)Cc1ccc(N3CCNCC3)c(Cl)c1O2.Cl [Example 32, 4-Chloro-6-methyl-10,10-dioxo-3-piperazin-1-yl-10,11-dihydro-5-oxa-10lambda*6*-thia-dibenzo[a,d]cycloheptene-8-carboxylic acid methyl ester hydrochloride]	0.16 µM	235 to 237 °C	27%	–	–	96%	–
COC(=O)Cc1cc(C)c2c(c1)S(=O)(=O)Cc1cc(N3CCNCC3)cc(Cl)c1O2.Cl [Example 33, (4-Chloro-6-methyl-10,10-dioxo-2-piperazine-1-yl-10,11-dihydro-5-oxa-10lambda*6*-thia-dibenzo[a,d]cyclohepten-8-yl)-acetic acid methyl ester hydrochloride]	0.2 µM	280 °C (dec.)	29%	–	–	95%	–
